Experimental data as given in patent US20060030608A1, “Anti aromatase compounds pharmaceutical compositions and uses thereof” (Boehringer Ingelheim Pharmaceuticals, Inc., priority 2004, published 2006).

Biological target: T1, recombinant human aromatase (CYP19) (Homo sapiens, UniProt P11511)
T1 construct: purchased GENTEST 456260; host or cells: baculovirus/insect cells
T1 sequence (P11511 1-503): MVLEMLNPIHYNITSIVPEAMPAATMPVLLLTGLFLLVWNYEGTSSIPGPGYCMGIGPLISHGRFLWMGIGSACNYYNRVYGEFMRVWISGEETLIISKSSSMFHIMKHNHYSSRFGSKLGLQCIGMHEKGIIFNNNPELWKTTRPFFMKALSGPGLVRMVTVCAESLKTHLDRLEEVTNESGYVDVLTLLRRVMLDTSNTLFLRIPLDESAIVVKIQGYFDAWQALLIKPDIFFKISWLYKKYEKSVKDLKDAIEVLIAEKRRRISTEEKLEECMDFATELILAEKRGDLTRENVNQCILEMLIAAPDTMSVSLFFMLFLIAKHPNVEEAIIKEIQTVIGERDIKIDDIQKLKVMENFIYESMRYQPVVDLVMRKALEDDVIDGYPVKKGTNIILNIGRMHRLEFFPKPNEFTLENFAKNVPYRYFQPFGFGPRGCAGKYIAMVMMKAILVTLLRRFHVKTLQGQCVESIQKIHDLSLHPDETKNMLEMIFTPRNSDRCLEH
Assay: aromatase (CYP19) inhibition assay, fluorometric substrate dibenzylfluorescein (DBF)
Assay type: biochemical
Conditions: recombinant human aromatase (baculovirus/insect cell expressed), test compounds 2×10^−5 to 10^−9 M, 37° C. for 30 minutes
Method: Compounds of the invention were evaluated for inhibiting aromatase enzyme using the following aromatase (CYP19) inhibition assay which detects aromatase inhibitors utilizing recombinant human aromatase (baculovirus/insect cell expressed) and the fluorometric substrate dibenzylfluorescein (DBF). Aromatase will metabolize DBF to fluorescein which will give the fluorescent signal. The assay is conducted in 96-well black, Falcon plate (BD Biosciences, Cat. No. 353241) in the total volume of 100 μL per well. 40 μL of the Cofactor/Dilution buffer (1) is added to the plate followed by 10 μL of serially diluted test compounds in duplicates for final concentration of 2×10^−5 to 10^−9 M, or 10 μL of phosphate buffer for positive and background control wells. After 10 minutes of preincubation at 37° C., the reaction is initiated by adding 50 μL of prewarmed Enzyme/Substrate Mix (2) to the test compound wells, and positive control wells (maximum activity of CYP19, which represents 100%). The plate is incubated at 37° C. for 30 minutes. To stop the reaction, 37.5 μL of 2 N NaOH is added to all wells. For background controls, 50 μL of Enzyme/Substrate Mix (2) are added into background control wells. The plate is left at 37° C. incubator for 2 hours to develop adequate signal to background ratio. Fluorescence per well is measured in the fluorescent plate reader. The metabolite concentration is measured using excitation wavelength of 485 nm and emission wavelength of 538 nm. Inhibition of aromatase by test compounds is expressed in percentage relative to positive controls. IC50 values for the test compounds are derived from non-liner curve fitting. • (1) Cofactor/Dilution buffer: 50 mM phosphate buffer, pH=7.4; 1× NADPH regenerating system A (20× stock, GENTEST, Cat. No. 451220); 1× NAPDH regenerating system B (100× stock, GENTEST, Cat. No. 451200) and 0.2 mg/mL control protein (Insect Cell Control Supersomes, GENTEST, Cat. No. 456200) • (2) Enzyme/Substrate Mix: 50 mM phosphate buffer, pH=7.4, 0.02 nmole/mL human aromatase protein (Human CYP19+P450 Reductase Supersomes, GENTEST, Cat. No. 456260); 0.4 μM dibenzylfluorescein (DBF, GENTEST, Cat. No. 451750, prepared at 2 mM concentration in acetonitrile); 0.5 mg/mL control protein (Insect Cell Control Supersomes, GENTEST, Cat. No. 456200).

aromatase inhibition | Structure (SMILES)
showed aromatase inhibition | CC(C)(CC(O)(Cc1cc2cnccc2[nH]1)C(F)(F)F)c1ccccc1 (stereo not drawn) [1,1,1-Trifluoro-4-methyl-4-phenyl-2-(1H-pyrrolo [3,2-c]pyridin-2-ylmethyl)pentan-2-ol]
showed aromatase inhibition | CC(C)(CC(O)(Cc1cc2cnccc2[nH]1)C(F)(F)F)c1cccc(F)c1 (stereo not drawn) [1,1,1-Trifluoro-4-(3-fluorophenyl)-4-methyl-2-(1H-pyrrolo[3,2-c]pyridin-2-ylmethyl)pentan-2-ol]
showed aromatase inhibition | Cc1ccc(F)cc1C(C)(C)CC(O)(Cc1cc2ncncc2[nH]1)C(F)(F)F (stereo not drawn) [1,1,1-Trifluoro-4-(5-fluoro-2-methylphenyl)-4-methyl-2-(5H-pyrrolo[3,2-d]pyrimidin-6-ylmethyl)pentan-2-ol]
showed aromatase inhibition | Cc1ccc(F)cc1C(C)(C)CC(O)(Cc1cc2ccncc2[nH]1)C1CC1 (stereo not drawn) [2-Cyclopropyl-4-(5-fluoro-2-methylphenyl)-4-methyl-1-(1H-pyrrolo[2,3-c]pyridin-2-yl)pentan-2-ol]
showed aromatase inhibition | COc1ccc(F)cc1C(C)(C)CC(O)(Cc1cc2cnccc2[nH]1)C(C)(C)C (stereo not drawn) [5-(5-Fluoro-2-methoxyphenyl)-2,2,5-trimethyl-3-(1H-pyrrolo[3,2-c]pyridin-2-ylmethyl)hexan-3-ol]
showed aromatase inhibition | CC(C)(CC(O)(Cc1cc2ccncc2[nH]1)C(F)(F)F)c1ccc(F)cc1 (stereo not drawn) [1,1,1-Trifluoro-4-(4-fluorophenyl)-4-methyl-2-(1H-pyrrolo[2,3-c]pyridin-2-ylmethyl)pentan-2-ol]
showed aromatase inhibition | CC(C)(CC(O)(Cc1cc2ccncc2[nH]1)C(F)(F)F)c1ccccc1 (stereo not drawn) [1,1,1-Trifluoro-4-methyl-4-phenyl-2-(1H-pyrrolo[2,3-c]pyridin-2-ylmethyl)pentan-2-ol]
showed aromatase inhibition | COc1ccc(F)cc1C(C)(C)CC(O)(Cc1cc2ccncc2[nH]1)C(C)C (stereo not drawn) [5-(5-Fluoro-2-methoxyphenyl)-2,5-dimethyl-3-(1H-pyrrolo[2,3-c]pyridin-2-ylmethyl)hexan-3-ol]
showed aromatase inhibition | CC(C)(CC(O)(Cc1cc2ccncc2[nH]1)C(F)(F)F)c1cccc(F)c1 (stereo not drawn) [1,1,1-Trifluoro-4-(3-fluorophenyl)-4-methyl-2-(1H-pyrrolo[2,3-c]pyridin-2-ylmethyl)pentan-2-ol]
showed aromatase inhibition | COc1ccc(F)cc1C(C)(C)CC(O)(Cc1cc2cnccc2[nH]1)C(C)C (stereo not drawn) [5-(5-Fluoro-2-methoxyphenyl)-2,5-dimethyl-3-(1H-pyrrolo[3,2-c]pyridin-2-ylmethyl)hexan-3-ol]
showed aromatase inhibition | CC(C)(CC(O)(Cc1cc2cnccc2[nH]1)C(F)(F)F)c1cccc2c1OCC2 (stereo not drawn) [4-(2,3-Dihydrobenzofuran-7-yl)-1,1,1-trifluoro-4-methyl-2-(1H-pyrrolo[3,2-c]pyridin-2-ylmethyl)pentan-2-ol]
showed aromatase inhibition | CC(C)(CC(O)(Cc1cc2ccncc2[nH]1)C(F)(F)F)c1cccc2c1OCC2 (stereo not drawn) [4-(2,3-Dihydrobenzofuran-7-yl)-1,1,1-trifluoro-4-methyl-2-(1H-pyrrolo[2,3-c]pyridin-2-ylmethyl)pentan-2-ol]
showed aromatase inhibition | CC(C)C(O)(Cc1cc2ccncc2[nH]1)CC(C)(C)c1cc(Cl)cc2c1OCC2 (stereo not drawn) [5-(5-Chloro-2,3-dihydrobenzofuran-7-yl)-2,5-dimethyl-3-(1H-pyrrolo[2,3-c]pyridin-2-ylmethyl)hexan-3-ol]
showed aromatase inhibition | COc1cc(F)ccc1C(C)(C)CC(O)(Cc1cc2ccncc2[nH]1)C(F)(F)F (stereo not drawn) [1,1,1-Trifluoro-4-(4-fluoro-2-methoxyphenyl)-4-methyl-2-(1H-pyrrolo[2,3-c]pyridin-2-ylmethyl)pentan-2-ol]
showed aromatase inhibition | COc1ccc(F)cc1C(C)(C)CC(O)(Cc1cc2ccncc2[nH]1)C(C)(C)C (stereo not drawn) [5-(5-Fluoro-2-methoxyphenyl)-2,2,5-trimethyl-3-(1H-pyrrolo[2,3-c]pyridin-2-ylmethyl)hexan-3-ol]
showed aromatase inhibition | COc1ccc(F)cc1C(C)(C)CC(O)(Cc1cc2cnccc2[nH]1)C(F)F (stereo not drawn) [1,1-Difluoro-4-(5-fluoro-2-methoxyphenyl)-4-methyl-2-(1H-pyrrolo[3,2-c]pyridin-2-ylmethyl)pentan-2-ol]
showed aromatase inhibition | COc1ccc(F)cc1C(C)(C)CC(O)(Cc1cc2ccncc2[nH]1)C(F)(F)F (stereo not drawn) [1,1,1-Trifluoro-4-(5-fluoro-2-methoxyphenyl)-4-methyl-2-(1H-pyrrolo[2,3-c]pyridin-2-ylmethyl)pentan-2-ol]
showed aromatase inhibition | CC(C)(CC(O)(Cc1cc2cnccc2[nH]1)C1CC1)c1cc(Cl)cc2c1OCC2 (stereo not drawn) [4-(5-Chloro-2,3-dihydrobenzofuran-7-yl)-2-cyclopropyl-4-methyl-1-(1H-pyrrolo[3,2-c]pyridin-2-yl)pentan-2-ol]
showed aromatase inhibition | Cc1cc2c(c(C(C)(C)CC(O)(Cc3cc4ccncc4[nH]3)C(F)(F)F)c1)OCC2 (stereo not drawn) [1,1,1-Trifluoro-4-methyl-4-(5-methyl-2,3-dihydrobenzofuran-7-yl)-2-(1H-pyrrolo[2,3-c]pyridin-2-ylmethyl)pentan-2-ol]
showed aromatase inhibition | Cc1ccc(F)cc1C(C)(C)CC(O)(Cc1cc2cnccc2[nH]1)C1CC1 (stereo not drawn) [2-Cyclopropyl-4-(5-fluoro-2-methylphenyl)-4-methyl-1-(1H-pyrrolo[3,2-c]pyridin-2-yl)pentan-2-ol]
showed aromatase inhibition | CC(C)(CC(O)(Cc1cc2cnccc2[nH]1)C(F)(F)F)c1ccc(F)cc1O (stereo not drawn) [5-Fluoro-2-[4,4,4-trifluoro-3-hydroxy-1,1-dimethyl-3-(1H-pyrrolo[3,2-c]pyridin-2-ylmethyl)butyl]phenol]
showed aromatase inhibition | COc1ccc(F)cc1C(C)(C)CC(O)(Cc1cc2ncncc2[nH]1)C(F)(F)F (stereo not drawn) [1,1,1-Trifluoro-4-(5-fluoro-2-methoxyphenyl)-4-methyl-2-(5H-pyrrolo[3,2-d]pyrimidin-6-ylmethyl)pentan-2-ol]
showed aromatase inhibition | CC(C)(CC(O)(Cc1cc2cnccc2[nH]1)C(F)(F)F)c1ccc(F)cc1 (stereo not drawn) [1,1,1-Trifluoro-4-(4-fluorophenyl)-4-methyl-2-(1H-pyrrolo [3,2-c]pyridin-2-ylmethyl)pentan-2-ol]
showed aromatase inhibition | COc1ccc(F)cc1C(C)(C)CC(O)(Cc1cc2ccncc2[nH]1)C1CC1 (stereo not drawn) [2-Cyclopropyl-4-(5-fluoro-2-methoxyphenyl)-4-methyl-1-(1H-pyrrolo[2,3-c]pyridin-2-yl)pentan-2-ol]
showed aromatase inhibition | COc1ccc(F)cc1C(C)(C)CC(O)(Cc1cc2ccncc2s1)C(F)(F)F (stereo not drawn) [1,1,1-Trifluoro-4-(5-fluoro-2-methoxyphenyl)-4-methyl-2-thieno[2,3-c]pyridin-2-ylmethylpentan-2-ol]
showed aromatase inhibition | COc1ccc(F)cc1C(C)(C)CC(O)(Cc1cc2cncnc2[nH]1)C(F)(F)F (stereo not drawn) [1,1,1-Trifluoro-4-(5-fluoro-2-methoxyphenyl)-4-methyl-2-(7H-pyrrolo[2,3-d]pyrimidin-6-ylmethyl)pentan-2-ol]
showed aromatase inhibition | CC(C)(CC(O)(Cc1cc2ccncc2[nH]1)C1CC1)c1cc(Cl)cc2c1OCC2 (stereo not drawn) [4-(5-Chloro-2,3-dihydrobenzofuran-7-yl)-2-cyclopropyl-4-methyl-1-(1H-pyrrolo[2,3-c]pyridin-2-yl)pentan-2-ol]
